# From patent US10100022B2, “Sphingosine kinase inhibitors” (University of Virginia Patent Foundation, priority 2014, dated 2018)
# pKi: −log10 of the molar value. Counter-ions that a name gives are not always drawn.
# Experiments:
# [1] = target: T1, human sphingosine kinase type 1 (hSPHK1) (Homo sapiens, UniProt Q9NYA1); assay: Sphingosine kinase assay, recombinant human SPHK1 ([32P]S1P product, scintillation counting); format: biochemical; details: read-out: activity hSPHK1 (range estimate of KI)
# T1 construct: made in house; host or cells: Sf9 insect cells (baculovirus)
# Protocol: (§1) Recombinant baculovirus encoding human sphingosine kinase type 1 (SPHK1) was used to infect Sf9 insect cells and after 2-5 days, cleared lysates were prepared and used without further purification. Human SPHK2, which was partially purified from baculovirus-infected Sf9 cell lysates, was purchased from a commercial source. Sphingosine kinase assays were performed using standard protocols. Product [^32P]S1P was recovered by binding to cation exchange paper and quantified by scintillation counting.
# [2] = target: T2, human sphingosine kinase type 2 (hSPHK2) (Homo sapiens, UniProt Q9NRA0); assay: Sphingosine kinase assay, recombinant human SPHK2 ([32P]S1P product, scintillation counting); format: biochemical; details: read-out: activity hSPHK2 (range estimate of KI)
# T2 construct: purchased; host or cells: Sf9 insect cells (baculovirus)
# T2 sequence (Q9NRA0 1-654): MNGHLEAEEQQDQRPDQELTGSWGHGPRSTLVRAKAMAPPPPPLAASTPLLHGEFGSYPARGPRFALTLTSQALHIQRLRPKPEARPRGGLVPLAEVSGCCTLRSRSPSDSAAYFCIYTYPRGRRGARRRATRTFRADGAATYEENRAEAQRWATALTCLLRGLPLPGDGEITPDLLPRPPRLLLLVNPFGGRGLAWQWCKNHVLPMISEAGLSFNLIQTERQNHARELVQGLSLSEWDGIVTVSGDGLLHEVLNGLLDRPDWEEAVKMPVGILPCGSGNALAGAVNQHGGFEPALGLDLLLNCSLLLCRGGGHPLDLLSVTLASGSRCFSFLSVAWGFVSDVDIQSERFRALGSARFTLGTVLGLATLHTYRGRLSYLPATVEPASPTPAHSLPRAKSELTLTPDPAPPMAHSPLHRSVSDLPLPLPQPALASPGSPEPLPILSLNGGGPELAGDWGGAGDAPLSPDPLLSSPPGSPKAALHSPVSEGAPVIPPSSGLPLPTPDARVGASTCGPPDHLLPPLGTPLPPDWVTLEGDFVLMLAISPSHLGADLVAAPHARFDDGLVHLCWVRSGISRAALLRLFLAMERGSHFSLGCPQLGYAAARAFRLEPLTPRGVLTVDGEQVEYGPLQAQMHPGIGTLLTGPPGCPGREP
# Protocol: as §1
# T1 sequence (Q9NYA1 whole entry): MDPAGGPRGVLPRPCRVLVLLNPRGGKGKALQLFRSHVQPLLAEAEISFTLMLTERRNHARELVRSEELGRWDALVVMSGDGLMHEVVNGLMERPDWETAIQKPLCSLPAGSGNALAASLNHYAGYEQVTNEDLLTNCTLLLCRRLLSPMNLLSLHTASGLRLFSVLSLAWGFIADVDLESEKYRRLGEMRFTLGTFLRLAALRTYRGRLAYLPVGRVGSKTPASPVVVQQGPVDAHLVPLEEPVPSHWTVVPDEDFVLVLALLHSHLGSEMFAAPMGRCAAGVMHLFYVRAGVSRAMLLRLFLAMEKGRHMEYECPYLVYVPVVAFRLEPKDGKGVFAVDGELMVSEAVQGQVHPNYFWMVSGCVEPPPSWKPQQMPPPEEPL
pKi [1],pKi [2],SMILES
< 5.00,> 6.00,"N=C(N)N1CCC[C@H]1c1nc(-c2ccc(OC/C=C\c3ccc(C(F)(F)F)cc3)c(C(F)(F)F)c2)no1 [Compound 92A, (S,Z)-amino(2-(3-(3-(trifluoromethyl)-4-((3-(4-(trifluoromethyl)phenyl)allyl)oxy)phenyl)-1,2,4-oxadiazol-5-yl)pyrrolidin-1-yl)methaniminium 2,2,2-trifluoroacetate]"
5.00 to 6.00,> 6.00,"CCCc1ccc(CCc2ccc(-c3noc([C@@H]4[C@@H](O)CCN4C(=N)N)n3)cc2C(F)(F)F)cc1 [Compound 34A, (2S,3S)-3-hydroxy-2-(3-(4-(4-propylphenethyl)-3-(trifluoromethyl)phenyl)-1,2,4-oxadiazol-5-yl)pyrrolidine-1-carboximidamide hydrochloride]"
< 5.00,< 5.00,"N=C(N)N1CCC[C@H]1c1nc(-c2ccc3cc(OCc4ccccc4)ccc3c2)no1 [Compound 73A, (S)-amino(2-(3-(6-(benzyloxy)naphthalen-2-yl)-1,2,4-oxadiazol-5-yl)pyrrolidin-1-yl)methaniminium chloride]"
5.00 to 6.00,> 6.00,CCCCCCCCOc1ccc(-c2noc([C@@H]3CCN3C(=N)N)n2)cc1C(F)(F)F [Compound 13B]
,5.00 to 6.00,"CCCCOc1ccc2cc(-c3noc([C@@H]4CCCN4C(=N)N)n3)ccc2c1 [Compound 56A, (S)-amino(2-(3-(6-(butyloxy)naphthalen-2-yl)-1,2,4-oxadiazol-5-yl)pyrrolidin-1-yl)methaniminium chloride]"
< 5.00,> 6.00,"N=C(N)N1CCC[C@H]1c1nc(-c2ccc(OC/C=C/c3cccc(Br)c3)c(C(F)(F)F)c2)no1 [Compound 86A, (S,E)-2-(3-(4-((3-(3-bromophenyl)allyl)oxy)-3-(trifluoromethyl)phenyl)-1,2,4-oxadiazol-5-yl)pyrrolidine-1-carboximidamide hydrochloride]"
< 5.00,> 6.00,"CCCCC=CCOc1ccc(-c2noc([C@@H]3CCCN3C(=N)N)n2)cc1C(F)(F)F [Compound 81A, (S)-amino(2-(3-(4-(hept-2-en-1-yloxy)-3-(trifluoromethyl)phenyl)-1,2,4-oxadiazol-5-yl)pyrrolidin-1-yl)methaniminium 2,2,2-trifluoroacetate]"
< 5.00,< 5.00,"N=C(N)N1CCC[C@H]1c1nc(-c2ccc3cc(OCCc4ccccc4C(F)(F)F)ccc3c2)no1 [Compound 55A, (S)-amino(2-(3-(6-(2-(trifluoromethyl)phenethoxy)naphthalen-2-yl)-1,2,4-oxadiazol-5-yl)pyrrolidin-1-yl)methaniminium chloride]"
< 5.00,> 6.00,"CCCCCCCCCCn1ccc2c(-c3noc([C@@H]4CCCN4C(=N)N)n3)cccc21 [Compound 11B, (S)-amino(2-(3-(1-decyl-1H-indol-4-yl)-1,2,4-oxadiazol-5-yl)pyrrolidin-1-yl)methaniminium chloride]"
< 5.00,> 6.00,"N=C(N)N1CCC[C@H]1c1nc(-c2ccc(OC/C=C/c3ccc(F)cc3)c(C(F)(F)F)c2)no1 [Compound 87A, (S,E)-2-(3-(4-((3-(4-fluorophenyl)allyl)oxy)-3-(trifluoromethyl)phenyl)-1,2,4-oxadiazol-5-yl)pyrrolidine-1-carboximidamide hydrochloride]"
< 5.00,> 6.00,CCCCCCCCOc1ccc(-c2nnc([C@@H]3CCCN3C(=N)N)s2)cc1C(F)(F)F [Compound 5B]
< 5.00,> 6.00,"N=C(N)N1C[C@H](O)C[C@H]1c1nc(-c2ccc(OCCCc3ccc(Cl)c(Cl)c3)c(C(F)(F)F)c2)no1 [Compound 31A, amino((2S,4R)-2-(3-(4-(3-(3,4-dichlorophenyl)propoxy)-3-(trifluoromethyl)phenyl)-1,2,4-oxadiazol-5-yl)-4-hydroxypyrrolidin-1-yl)methaniminium chloride]"
< 5.00,< 5.00,"COCCCOc1ccc2cc(-c3noc([C@@H]4CCCN4C(=N)N)n3)ccc2c1 [Compound 57A, (S)-amino(2-(3-(6-(3-methoxypropoxy)naphthalen-2-yl)-1,2,4-oxadiazol-5-yl)pyrrolidin-1-yl)methaniminium chloride]"
< 5.00,5.00 to 6.00,"N#Cc1ccc(COc2ccc3cc(-c4noc([C@@H]5CCCN5C(=N)N)n4)ccc3c2)cc1 [Compound 70A, (S)-amino(2-(3-(6-((4-cyanobenzyl)oxy)naphthalen-2-yl)-1,2,4-oxadiazol-5-yl)pyrrolidin-1-yl)methaniminium chloride]"
< 5.00,5.00 to 6.00,"N=C(N)N1CCC[C@H]1c1nc(-c2ccc3cc(OCc4cccc(C(F)(F)F)c4)ccc3c2)no1 [Compound 67A, (S)-amino(2-(3-(6-((3-(trifluoromethyl)benzyl)oxy)naphthalen-2-yl)-1,2,4-oxadiazol-5-yl)pyrrolidin-1-yl)methaniminium chloride]"
< 5.00,> 6.00,CCCCCCCCCc1ccc(-c2noc([C@@H]3CCCN3C(=N)N)n2)cc1C(F)(F)F [Compound 3B]
< 5.00,5.00 to 6.00,"C=CCn1c(CCCOc2ccc(-c3noc([C@@H]4[C@@H](O)CCN4C(=N)N)n3)cc2C(F)(F)F)nc2ccccc21 [Compound 47A, ((2S,3S)-2-(3-(4-(3-(1-allyl-1H-benzo[d]imidazol-2-yl)propoxy)-3-(trifluoromethyl)phenyl)-1,2,4-oxadiazol-5-yl)-3-hydroxypyrrolidin-1-yl)(amino)methaniminium chloride]"
< 5.00,5.00 to 6.00,"CCCCCCCOc1ccc2cc(-c3noc([C@@H]4CCCN4C(=N)N)n3)ccc2c1 [Compound 13A, (S)-amino(2-(3-(6-(heptyloxy)naphthalen-2-yl)-1,2,4-oxadiazol-5-yl)pyrrolidin-1-yl)methaniminium chloride]"
< 5.00,> 6.00,"CCc1ccc(CCc2ccc(-c3noc([C@@H]4CCCN4C(=N)N)n3)cc2C(F)(F)F)cc1 [Compound 50A, (S)-2-(3-(4-(4-ethylphenethyl)-3-(trifluoromethyl)phenyl)-1,2,4-oxadiazol-5-yl)pyrrolidine-1-carboximidamide hydrochloride]"
,> 6.00,"CCCCCCCCCCn1cc(-c2noc([C@@H]3CCCN3C(=N)N)n2)c2ccccc21 [Compound 7A, (S)-amino(2-(3-(1-decyl-1H-indol-3-yl)-1,2,4-oxadiazol-5-yl)pyrrolidin-1-yl)methaniminium chloride]"
,> 6.00,"CCCCCCCCCCCCn1cc(-c2noc([C@@H]3CCCN3C(=N)N)n2)c2ccccc21 [Compound 3A, (S)-amino(2-(3-(1-dodecyl-1H-indol-3-yl)-1,2,4-oxadiazol-5-yl)pyrrolidin-1-yl)methaniminium chloride]"
,5.00 to 6.00,"N=C(N)N1CCC[C@H]1c1nc(-c2ccc3cc(OCc4ccc(C(F)(F)F)cc4)ccc3c2)no1 [Compound 52A, (S)-amino(2-(3-(6-((4-(trifluoromethyl)benzyl)oxy)naphthalen-2-yl)-1,2,4-oxadiazol-5-yl)pyrrolidin-1-yl)methaniminium chloride]"
< 5.00,,CCCCCCCCOc1ccc(-c2noc([C@@H]3CCCN3C(=N)N)n2)cc1C(F)(F)F [Compound 2B]

SMILES,pKi [1],pKi [2]
"N=C(N)N1CC[C@H](O)[C@H]1c1nc(-c2ccc(OCCCCc3ccc(C(F)(F)F)cc3)c(C(F)(F)F)c2)no1 [Compound 25A, amino((2S,3S)-3-hydroxy-2-(3-(3-(trifluoromethyl)-4-(4-(4-(trifluoromethyl)phenyl)butoxy)phenyl)-1,2,4-oxadiazol-5-yl)pyrrolidin-1-yl)methaniminium chloride]",> 6.00,> 6.00
"CCCCCCCCn1cc(-c2noc([C@@H]3CCCN3C(=N)N)n2)c2ccccc21 [Compound 74A, (S)-amino(2-(3-(1-octyl-1H-indol-3-yl)-1,2,4-oxadiazol-5-yl)pyrrolidin-1-yl)methaniminium chloride]",< 5.00,5.00 to 6.00
"COCCCCOc1ccc2cc(-c3noc([C@@H]4CCCN4C(=N)N)n3)ccc2c1 [Compound 65A, (S)-amino(2-(3-(6-(4-methoxybutoxy)naphthalen-2-yl)-1,2,4-oxadiazol-5-yl)pyrrolidin-1-yl)methaniminium chloride]",< 5.00,< 5.00
"CC1(C)CCC(C)(C)c2cc(COc3ccc4cc(-c5noc([C@@H]6CCCN6C(=N)N)n5)ccc4c3)ccc21 [Compound 71A, (S)-amino(2-(3-(6-((5,5,8,8-tetramethyl-5,6,7,8-tetrahydronaphthalen-2-yl)methoxy)naphthalen-2-yl)-1,2,4-oxadiazol-5-yl)pyrrolidin-1-yl)methaniminium chloride]",,< 5.00
